Drawing on ChEMBL document CHEMBL1156465, “Structures of Mycobacterium tuberculosis 1-deoxy-D-xylulose-5-phosphate reductoisomerase provide new insights into catalysis” (J Biol Chem, 2007), this text covers IC50 for one compound.

The assay can be described thus: Inhibition of Escherichia coli DXR by spectrophotometric method.

For `O=CN(O)CCCP(=O)(O)O` [FOSMIDOMYCIN], inhibition was half-maximal at 30 nM (IC50).

The IC50 is the concentration at which inhibition is half-maximal. A higher IC50 goes with a need for much substance.
